Where “and” joins values, the source holds several entries; their conditions need not be identical. Identical values can stand only once. Records with an inconclusive call do not appear.
Tested on: C3AKF1 mice, osteogenic sarcoma HE10734 s.c., tumor weight T/C
Test: NCI In Vivo Anticancer Drug Screen. Data for tumor model Osteogenic Sarcoma HE 10734 (subcutaneous) in C3AKF1 (CHKRF1) mice
Conditions: endpoint: mean tumor weight, schedule: Q01DX010 (ip), higher = larger tumour
Method: The antitumor activity of compounds was measured in mice bearing transplantable tumors. Survival or tumor size were measured and the results are expressed as the measurement made in the treated group (T) divided by the measurement made in the vehicle treated control group (C). The tumor model used in this assay is Osteogenic Sarcoma HE 10734 (subcutaneous) in C3AKF1 (CHKRF1) mice

[1] = dose: 50.0 mg/kg/injection, vehicle: saline
[2] = dose: 200.0 mg/kg/injection, vehicle: saline

## CC(C)Sc1nc(N)nc2nc[nH]c12
dose: 25.0 mg/kg/injection, vehicle: saline
  T/C: 71 % of control
[1]
  T/C: 83 % of control
dose: 100.0 mg/kg/injection, vehicle: saline
  T/C: 76 % of control
[2]
  T/C: 23 % of control

## CCOC(=O)NC
dose: 125.0 mg/kg/injection, vehicle: saline
  T/C: 104 % of control
dose: 250.0 mg/kg/injection, vehicle: saline
  T/C: 67 % of control
dose: 500.0 mg/kg/injection, vehicle: saline
  T/C: 59 % of control
dose: 1000.0 mg/kg/injection, vehicle: saline
  T/C: 27 % of control

## O=c1c[n+](-c2ccccc2)[nH]o1
dose: 22.5 mg/kg/injection, vehicle: carboxymethylcellulose (CMC)
  T/C: 87 % of control
dose: 45.0 mg/kg/injection, vehicle: carboxymethylcellulose (CMC)
  T/C: 110 % of control
dose: 90.0 mg/kg/injection, vehicle: carboxymethylcellulose (CMC)
  T/C: 83 % of control
dose: 180.0 mg/kg/injection, vehicle: carboxymethylcellulose (CMC)
  T/C: 70 % of control

## CN(C)Nc1ncnc2nc[nH]c12
dose: 20.0 mg/kg/injection, vehicle: saline
  T/C: 84 % of control
dose: 40.0 mg/kg/injection, vehicle: saline
  T/C: 72 % of control
dose: 80.0 mg/kg/injection, vehicle: saline
  T/C: 38 % of control

## Nc1ccc2ccccc2c1N=Nc1ccccc1
dose: 62.5 mg/kg/injection, vehicle: carboxymethylcellulose (CMC)
  T/C: 101 % of control
dose: 125.0 mg/kg/injection, vehicle: carboxymethylcellulose (CMC)
  T/C: 100 % of control
dose: 250.0 mg/kg/injection, vehicle: carboxymethylcellulose (CMC)
  T/C: 65 % of control
dose: 500.0 mg/kg/injection, vehicle: carboxymethylcellulose (CMC)
  T/C: 41 % of control

## Cc1nc(N)nc(N)c1-c1ccc(Cl)c(Cl)c1
dose: 0.09 mg/kg/injection, vehicle: carboxymethylcellulose (CMC)
  T/C: 94 % of control
dose: 0.18 mg/kg/injection, vehicle: carboxymethylcellulose (CMC)
  T/C: 103 % of control
dose: 0.37 mg/kg/injection, vehicle: carboxymethylcellulose (CMC)
  T/C: 88 % of control
dose: 1.5 mg/kg/injection, vehicle: carboxymethylcellulose (CMC)
  T/C: 21 % of control

## NC1(C(=O)O)CCCC1
dose: 15.0 mg/kg/injection, vehicle: saline
  T/C: 109 % of control
dose: 23.0 mg/kg/injection, vehicle: saline
  T/C: 46 % of control
dose: 35.0 mg/kg/injection, vehicle: saline
  T/C: 77 % of control
dose: 55.0 mg/kg/injection, vehicle: carboxymethylcellulose (CMC)
  T/C: 30 % of control and 42 % of control
dose: 55.0 mg/kg/injection, vehicle: saline
  T/C: 46 % of control
dose: 85.0 mg/kg/injection, vehicle: carboxymethylcellulose (CMC)
  T/C: 27 % of control and 45 % of control

## O=C(O)C(=O)c1ccc(-c2ccccc2)cc1
dose: 35.0 mg/kg/injection, vehicle: carboxymethylcellulose (CMC)
  T/C: 69 % of control

## S=c1c2[nH]cnc2ncn1CCSC1=NC=NC2=NC=NC21 (stereo not drawn)
[1]
  T/C: 81 % of control
[2]
  T/C: 35 % of control
dose: 400.0 mg/kg/injection, vehicle: saline
  T/C: 29 % of control

## O=C(O)Cc1ccc(C2CCCCC2)cc1
dose: 150.0 mg/kg/injection, vehicle: carboxymethylcellulose (CMC)
  T/C: 95 % of control

## CCCCCCC(=O)NC1=C(N2CC2)C(=O)C(NC(=O)CCCCCC)=C(N2CC2)C1=O
dose: 15.0 mg/kg/injection, vehicle: carboxymethylcellulose (CMC)
  T/C: 104 % of control
dose: 30.0 mg/kg/injection, vehicle: carboxymethylcellulose (CMC)
  T/C: 83 % of control
dose: 60.0 mg/kg/injection, vehicle: carboxymethylcellulose (CMC)
  T/C: 50 % of control
dose: 120.0 mg/kg/injection, vehicle: carboxymethylcellulose (CMC)
  T/C: 33 % of control
